# Assay results from US20250064993A1, “NOVEL BISPIDINE-BASED METAL CHELATING LIGANDS DISPLAYING GOOD RELAXIVITY” (UNIVERSITE DE STRASBOURG, priority 2021, published 2025).
# What was measured:
# [1] = Longitudinal relaxivity r1 in water at 60 MHz (WP80 NMR, Bruker); assay type: physicochemical; conditions: at 25° C., pH = 7.4, and 60 MHz
# Procedure: Equimolar quantities of ligand and MnCl2 were dissolved in milli-Q water, the pH was adjusted to 7.4 either with a buffered solution or by adding KOH or HCl to the solution and the samples were heated at 60° C. for 30 min. The absence of free Mn^2+ was checked by the Xylenol orange test.
# The relaxivity at 60 MHz is measured with a device commercialized under the brand name WP80 NMR by the firm Brucker according to the following protocol. A millimolar aqueous solution of complex was prepared with Milli-Q water (p<18MΩ). The concentration of Mn^2+-containing samples was checked by ICP-OES and/or NMR by using the bulk magnetic susceptibility. The absence of free Mn^2+ was checked by the Xylenol orange test. For the relaxivity measurement, the temperature was monitored by a VTC91 temperature control unit and maintained by a gas flow. The temperature was determined by previous calibration with a Pt resistance temperature probe.
# [2] = Kinetic inertness: half-life by transmetallation of the Mn2+ complex with excess Zn2+, followed by water proton relaxation rates; assay type: physicochemical; conditions: 25 eq Zn^2+, pH = 6, 37° C.; read-out: Half-life in excess of Zn^2+ (t1/2) (converted)
# Procedure: The excess of the exchanging metal ion guarantees the pseudo-first order conditions. For the duration of the experiments (up to 3 months), the samples were stored in a thermostat at 37° C. between the relaxivity measurements. The pH was controlled for each sample at the end of the kinetic measurements to confirm that it remained stable during the experiment. The reactions were monitored by measuring the water proton relaxation rates at 60 MHz on a relaxometer commercialized under the brand name Minispec by the firm a Bruker. The analysis of the experimental data was performed using Visualiseur/Optimiseur running on a MATLAB 8.3.0 (R2014a) platform according to equations (1) and (2): […]
# were [MnL]t stands for the total concentration of MnL complex, Kobs stands for the pseudo-first order constant and t1/2 is the half-life of the MnL complex in the given conditions.
# [3] = pH of 7.4, 60 MHz, 25° C.; cited from earlier work
smiles,measurement,setting,value
CN1[C@@H](c2ccccn2)C2(C(=O)O)CN([C@@H](CCCCNC(=O)CCOCCOCCO)C(=O)O)CC(C(=O)O)([C@H]2O)[C@H]1c1ccccn1 [(I-a)],Longitudinal relaxivity in water (r1),[1]; listed as (I-A),4.89 mM⁻¹ s⁻¹
CN1[C@@H](c2ccccn2)C2(C(=O)O)CN([C@@H](CCCCNC(=O)CCOCCOCCO)C(=O)O)CC(C(=O)O)([C@H]2O)[C@H]1c1ccccn1 [(I-d)],half-life at 1 mM,[2],160 days
same,Longitudinal relaxivity in water (r1),[1]; listed as (I-D),4.03 mM⁻¹ s⁻¹
"CNC[C@H](O)[C@@H](O)[C@H](O)[C@H](O)CO.O=C([O-])CN1CCN(CC(=O)[O-])CCN(CC(=O)O)CCN(CC(=O)[O-])CC1.[Gd+3] [Dotarem, gadoterate meglumine]",relaxivity r1,[3],3.7 mM⁻¹ s⁻¹
